Earlier results on six molecules are cited in patent publication US20200030399A1, “HERBAL COMPOSITIONS OF CALIFORNIA POPPY AND METHOD FOR THE TREATMENT OF SLEEP AND DREAM-RELATED DISORDERS” (MONDIAS NATURELS INC., priority 2017, published 2020).

Data set [1] relates to dexamphetamine produced mortality. The following applies: mice.
For data set [2], the system named is stereotyped behaviour effects of dexamphetamine. The following applies: mice.
For data set [3], the system named is pentetylenetetrazole. The following applies: mice.
In data set [4] the test system is myorelaxant effects. The following applies: mice.
The subject of data set [5] is anticholinergic effects of Oxotremorine. The following applies: mice.
In data set [6] the test system is acetic acid writhing. The following applies: mice; doses not given; dose-response for the extract.
For data set [7], the system named is reserpine-induced ptosis, akinesia or hypothermia. The following applies: mice.

`CN(C)CCCN1c2ccccc2Sc2ccc(Cl)cc21` [Chlorpromazine]: in data set [1], the “protective effect against dexamphetamine produced mortality” value is “a protective effect was observed”. For the same molecule, in data set [2], the “stereotyped behaviour effects of dexamphetamine” value was “significantly decreased”. In the case of `O=C(O)C1N=C(c2ccccc2)c2cc(Cl)ccc2NC1=O` (centres unmarked) [Clorazepate, Clorazepate dipotassium], in data set [3], the anticonvulsant effects entry was “Dose-dependent anticonvulsant and myorelaxant effects”. Besides, the myorelaxant effects entry in data set [4] is “Dose-dependent anticonvulsant and myorelaxant effects”.

In the case of `CN(C)CCCN1c2ccccc2CCc2ccccc21` [Imipramine], the “effect against the anticholinergic effects of Oxotremorine” value in data set [5] is recorded as “significantly reduced”. As for `CC(=O)Oc1ccccc1C(=O)O` [acetylsalicylic acid], in data set [6], the “Protection against writing (acetic acid writhing)” value was 60%. Consider `CN(C)CCC=C1c2ccccc2CCc2ccccc21` [amitryptiline], for which the “effect against reserpine-induced ptosis, akinesia or hypothermia” value in data set [7] is “significantly reduced ptosis and hypothermia”. On to `CC(=O)Nc1ccc(O)cc1` [paracetamol], for which the “Protection against writing (acetic acid writhing)” value in data set [6] is 60%.
